Measurements as given in patent US20130209543A1, “ENHANCED TREATMENT REGIMENS USING MTOR INHIBITORS” (Intellikine LLC, priority 2011, published 2013).
pIC50: −log10 of the molar value. Read-outs that look alike come from different tables or passages of the source.

Experiments:
Type in all cases: biochemical
[1] = target: T1, mTOR (Homo sapiens, UniProt P42345); test: mTOR kinase inhibition assay
T1 construct: purchased Invitrogen
Procedure: The compounds described herein and any other mTorC1/mTorC2 inhibitors known in the art can be tested against recombinant mTOR (Invitrogen) in an assay containing 50 mM HEPES, pH 7.5, 1 mM EGTA, 10 mM MgCl2, 2.5 mM, 0.01% Tween, 10 μM ATP (2.5 μCi of μ-32P-ATP), and 3 mg/mL BSA. Rat recombinant PHAS-1/4EBP1 (Calbiochem; 2 mg/mL) is used as a substrate. Reactions are terminated by spotting onto nitrocellulose, which is washed with 1M NaCl/1% phosphoric acid (approximately 6 times, 5-10 minutes each). Sheets are dried and the transferred radioactivity quantitated by phosphorimaging.
For instance, one can use Invitrogen's LanthaScreen™ Kinase assay to test the inhibitors of mTOR disclosed herein. This assay is a time resolved FRET platform that measures the phosphorylation of GFP labeled 4EBP1 by mTOR kinase. The kinase reaction is performed in a white 384 well microtitre plate. The total reaction volume is 20 μl per well and the reaction buffer composition is 50 mM HEPES pH7.5, 0.01% Polysorbate 20, 1 mM EGTA, 10 mM MnCl2, and 2 mM DTT. In the first step, each well receives 2 ul of test compound in 20% dimethylsulphoxide resulting in a 2% DMSO final concentration. Next, 8ul of mTOR diluted in reaction buffer is added per well for a 60 ng/ml final concentration. To start the reaction, 10 ul of an ATP/GFP-4EBP1 mixture (diluted in reaction buffer) is added per well for a final concentration of 10 μM ATP and 0.5 μM GFP-4EBP1. The plate is sealed and incubated for 1 hour at room temperature. […] The plate is sealed, incubated for 1 hour at room temperature, and then read on a plate reader set up for LanthaScreen™ TR-FRET. Data is analyzed and IC50s are generated using GraphPad Prism 5.

[2] = target: PI3K α (Homo sapiens, UniProt P42336); test: PI3K α kinase assay
[3] = target: PI3K δ (Homo sapiens, UniProt O00329); test: PI3K δ kinase assay
[4] = target: PI3K γ (Homo sapiens, UniProt P48736); test: PI3K γ kinase assay
[5] = target: PI3K β (Homo sapiens, UniProt P42338); test: PI3K β kinase assay
PI3K β, sequence (P42338 whole entry, species assumed): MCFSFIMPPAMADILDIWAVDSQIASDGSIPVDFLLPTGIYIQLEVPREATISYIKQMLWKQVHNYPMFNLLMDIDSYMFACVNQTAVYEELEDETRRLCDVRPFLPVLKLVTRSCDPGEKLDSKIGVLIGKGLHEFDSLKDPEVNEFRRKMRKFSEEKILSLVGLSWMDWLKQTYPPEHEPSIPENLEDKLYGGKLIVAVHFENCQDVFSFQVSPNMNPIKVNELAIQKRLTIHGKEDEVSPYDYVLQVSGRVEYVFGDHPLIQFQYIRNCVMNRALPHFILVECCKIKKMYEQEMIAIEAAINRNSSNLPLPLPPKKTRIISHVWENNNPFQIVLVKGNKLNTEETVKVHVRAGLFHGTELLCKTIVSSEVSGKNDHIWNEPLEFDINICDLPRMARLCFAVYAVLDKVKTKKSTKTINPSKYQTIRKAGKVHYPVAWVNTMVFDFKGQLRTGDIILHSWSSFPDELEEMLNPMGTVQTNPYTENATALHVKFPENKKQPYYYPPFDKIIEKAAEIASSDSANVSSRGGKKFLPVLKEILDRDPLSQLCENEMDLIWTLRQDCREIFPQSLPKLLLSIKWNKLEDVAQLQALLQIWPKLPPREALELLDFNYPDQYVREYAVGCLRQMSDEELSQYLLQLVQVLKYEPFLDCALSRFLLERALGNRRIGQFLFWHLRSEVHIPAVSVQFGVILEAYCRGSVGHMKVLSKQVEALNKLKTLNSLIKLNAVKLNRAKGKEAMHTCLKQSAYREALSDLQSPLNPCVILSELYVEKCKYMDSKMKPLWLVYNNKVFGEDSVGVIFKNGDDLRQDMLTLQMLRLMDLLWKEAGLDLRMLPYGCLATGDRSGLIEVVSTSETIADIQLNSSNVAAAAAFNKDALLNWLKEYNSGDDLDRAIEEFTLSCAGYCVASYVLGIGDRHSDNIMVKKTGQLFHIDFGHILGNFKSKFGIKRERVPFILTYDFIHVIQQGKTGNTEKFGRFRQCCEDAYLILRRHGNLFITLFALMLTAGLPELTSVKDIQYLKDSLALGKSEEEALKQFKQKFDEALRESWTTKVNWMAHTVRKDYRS
PI3K β, sequence (P27986 whole entry partner, species assumed): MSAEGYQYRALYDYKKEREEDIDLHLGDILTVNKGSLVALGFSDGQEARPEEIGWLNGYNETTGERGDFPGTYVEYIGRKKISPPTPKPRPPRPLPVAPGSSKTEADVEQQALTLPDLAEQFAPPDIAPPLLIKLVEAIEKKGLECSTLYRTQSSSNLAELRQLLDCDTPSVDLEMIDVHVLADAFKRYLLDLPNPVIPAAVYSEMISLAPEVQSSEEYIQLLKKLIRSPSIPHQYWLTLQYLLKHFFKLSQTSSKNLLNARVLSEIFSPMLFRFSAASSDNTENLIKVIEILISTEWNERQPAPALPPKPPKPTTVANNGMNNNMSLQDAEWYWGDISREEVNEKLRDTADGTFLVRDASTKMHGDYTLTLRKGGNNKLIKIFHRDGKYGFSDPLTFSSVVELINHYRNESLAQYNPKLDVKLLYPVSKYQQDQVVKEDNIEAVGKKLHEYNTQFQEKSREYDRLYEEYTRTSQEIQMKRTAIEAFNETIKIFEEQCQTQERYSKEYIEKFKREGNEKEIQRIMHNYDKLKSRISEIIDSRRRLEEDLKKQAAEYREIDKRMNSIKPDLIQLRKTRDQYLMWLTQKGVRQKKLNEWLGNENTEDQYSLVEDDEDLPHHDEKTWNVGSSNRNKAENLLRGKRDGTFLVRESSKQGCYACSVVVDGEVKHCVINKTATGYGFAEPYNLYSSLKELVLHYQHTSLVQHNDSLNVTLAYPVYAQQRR

PI3K γ, sequence (P48736 whole entry, species assumed): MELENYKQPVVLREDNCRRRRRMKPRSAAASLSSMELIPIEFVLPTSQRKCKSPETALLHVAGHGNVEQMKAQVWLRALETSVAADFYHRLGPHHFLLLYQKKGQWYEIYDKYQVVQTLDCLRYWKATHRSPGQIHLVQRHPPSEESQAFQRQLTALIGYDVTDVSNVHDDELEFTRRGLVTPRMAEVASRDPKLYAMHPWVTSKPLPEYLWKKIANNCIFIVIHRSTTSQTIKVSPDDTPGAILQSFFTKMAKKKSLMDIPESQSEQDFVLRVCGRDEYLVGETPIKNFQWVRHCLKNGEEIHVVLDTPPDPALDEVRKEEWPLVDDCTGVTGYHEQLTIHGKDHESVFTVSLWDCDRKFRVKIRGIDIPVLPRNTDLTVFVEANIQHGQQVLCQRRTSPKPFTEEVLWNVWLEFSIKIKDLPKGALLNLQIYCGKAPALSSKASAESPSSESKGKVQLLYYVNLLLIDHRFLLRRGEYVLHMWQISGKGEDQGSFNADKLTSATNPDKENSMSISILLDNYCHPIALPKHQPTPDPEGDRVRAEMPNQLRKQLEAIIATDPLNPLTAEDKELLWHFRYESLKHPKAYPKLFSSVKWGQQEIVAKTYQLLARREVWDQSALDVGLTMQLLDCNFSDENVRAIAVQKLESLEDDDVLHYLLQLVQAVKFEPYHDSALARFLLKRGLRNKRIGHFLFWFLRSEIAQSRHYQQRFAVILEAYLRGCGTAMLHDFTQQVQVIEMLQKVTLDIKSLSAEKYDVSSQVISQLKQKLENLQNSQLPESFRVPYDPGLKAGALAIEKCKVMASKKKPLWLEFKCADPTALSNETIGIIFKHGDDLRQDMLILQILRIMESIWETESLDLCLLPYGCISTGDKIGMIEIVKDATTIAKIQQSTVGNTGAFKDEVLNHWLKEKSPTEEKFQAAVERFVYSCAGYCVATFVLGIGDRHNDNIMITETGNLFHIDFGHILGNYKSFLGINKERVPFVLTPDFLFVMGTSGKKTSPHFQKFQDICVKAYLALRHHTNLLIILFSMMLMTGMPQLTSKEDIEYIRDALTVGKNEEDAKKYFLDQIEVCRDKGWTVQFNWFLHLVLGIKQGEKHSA
PI3K δ, sequence (O00329 whole entry, species assumed): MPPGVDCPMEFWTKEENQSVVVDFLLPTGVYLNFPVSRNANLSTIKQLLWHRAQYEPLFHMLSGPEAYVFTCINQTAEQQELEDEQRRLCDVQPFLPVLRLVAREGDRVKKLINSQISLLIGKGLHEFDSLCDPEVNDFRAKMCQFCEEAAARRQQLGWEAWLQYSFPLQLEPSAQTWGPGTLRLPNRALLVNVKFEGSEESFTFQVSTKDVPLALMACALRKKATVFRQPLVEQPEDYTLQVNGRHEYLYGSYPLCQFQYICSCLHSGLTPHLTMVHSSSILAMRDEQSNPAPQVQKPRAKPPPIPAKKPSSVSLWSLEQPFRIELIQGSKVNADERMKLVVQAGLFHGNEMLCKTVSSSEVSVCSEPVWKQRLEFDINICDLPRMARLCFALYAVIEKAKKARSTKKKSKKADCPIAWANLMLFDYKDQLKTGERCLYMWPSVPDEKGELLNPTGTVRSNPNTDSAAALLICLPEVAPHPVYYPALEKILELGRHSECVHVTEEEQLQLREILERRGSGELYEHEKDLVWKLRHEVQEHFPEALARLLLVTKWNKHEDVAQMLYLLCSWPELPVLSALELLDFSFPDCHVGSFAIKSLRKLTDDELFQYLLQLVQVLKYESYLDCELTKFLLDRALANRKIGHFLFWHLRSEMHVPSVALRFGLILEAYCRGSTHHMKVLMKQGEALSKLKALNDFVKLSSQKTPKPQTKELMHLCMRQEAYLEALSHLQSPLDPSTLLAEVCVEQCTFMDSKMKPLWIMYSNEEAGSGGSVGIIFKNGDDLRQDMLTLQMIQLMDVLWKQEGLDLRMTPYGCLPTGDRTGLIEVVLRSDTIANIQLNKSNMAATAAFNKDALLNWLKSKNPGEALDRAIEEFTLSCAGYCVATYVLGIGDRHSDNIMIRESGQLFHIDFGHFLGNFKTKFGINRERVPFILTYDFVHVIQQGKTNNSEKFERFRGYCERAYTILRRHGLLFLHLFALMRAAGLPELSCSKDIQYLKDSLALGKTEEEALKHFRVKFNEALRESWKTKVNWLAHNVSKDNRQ
PI3K δ, sequence (P27986 whole entry partner, species assumed): as the sequence (P27986 whole entry partner, species assumed) above
PI3K α, sequence (P42336 whole entry, species assumed): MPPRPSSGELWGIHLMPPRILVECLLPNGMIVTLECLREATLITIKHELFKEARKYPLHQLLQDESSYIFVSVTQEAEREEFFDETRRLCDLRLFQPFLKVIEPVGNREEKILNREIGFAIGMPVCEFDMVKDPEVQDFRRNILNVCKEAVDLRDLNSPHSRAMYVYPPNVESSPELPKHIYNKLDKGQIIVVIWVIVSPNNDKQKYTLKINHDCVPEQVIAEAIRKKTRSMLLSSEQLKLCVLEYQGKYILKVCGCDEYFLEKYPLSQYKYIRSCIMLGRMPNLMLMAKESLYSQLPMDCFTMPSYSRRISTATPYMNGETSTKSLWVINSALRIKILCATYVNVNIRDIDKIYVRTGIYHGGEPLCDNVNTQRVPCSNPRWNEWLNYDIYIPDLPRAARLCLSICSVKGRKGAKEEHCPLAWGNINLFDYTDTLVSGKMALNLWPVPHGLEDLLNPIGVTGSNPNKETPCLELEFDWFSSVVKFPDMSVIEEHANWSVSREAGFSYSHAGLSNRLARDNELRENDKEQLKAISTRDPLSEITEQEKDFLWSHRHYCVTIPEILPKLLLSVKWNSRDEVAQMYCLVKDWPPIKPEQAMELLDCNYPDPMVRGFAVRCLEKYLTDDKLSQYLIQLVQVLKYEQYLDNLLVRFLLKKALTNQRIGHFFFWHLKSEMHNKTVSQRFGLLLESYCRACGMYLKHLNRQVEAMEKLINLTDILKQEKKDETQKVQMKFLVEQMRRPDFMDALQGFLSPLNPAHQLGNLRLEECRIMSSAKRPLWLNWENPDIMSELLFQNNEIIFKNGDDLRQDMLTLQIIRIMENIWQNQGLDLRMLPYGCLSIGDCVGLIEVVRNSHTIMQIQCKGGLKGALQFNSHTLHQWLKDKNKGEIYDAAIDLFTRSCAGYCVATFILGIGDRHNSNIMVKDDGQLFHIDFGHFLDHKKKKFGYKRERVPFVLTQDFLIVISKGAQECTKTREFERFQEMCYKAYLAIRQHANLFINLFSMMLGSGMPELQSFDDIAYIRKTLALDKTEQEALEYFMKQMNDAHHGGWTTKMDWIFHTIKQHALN
PI3K α, sequence (P27986 whole entry partner, species assumed): as the sequence (P27986 whole entry partner, species assumed) above

| SMILES | pIC50 ([1]; Table 2, read-out: mTORC IC50) | pIC50 ([2]; Table 2) | pIC50 ([3]; Table 2) | further results |
| --- | --- | --- | --- | --- |
| CC(C)n1nc(-c2cc3cc(F)ccc3[nH]2)c2c(NC(=O)N(C)C)ncnc21 [Compound 2] | < 6.30 | – | – | – |
| CC(=O)Nc1nc2ccc(-c3nn(C(C)C)c4ncnc(N)c34)cc2o1 [Compound 3] | – | – | – | pIC50 ([2]; Table 1): < 5.00 |
| CC(C)n1nc(-c2cc3cc(F)ccc3[nH]2)c2c(N)ncnc21 [Compound 3] | 6.30 to 7.00 | < 6.30 | – | – |
| CC(C)n1nc(-c2cc3cc(C#N)ccc3[nH]2)c2c(N)ncnc21 [Compound 4] | < 6.30 | < 6.30 | – | – |
| COc1ccc2[nH]c(-c3nn(C(C)C)c4ncnc(N)c34)cc2c1 [Compound 5] | < 6.30 | < 6.30 | – | – |
| CC(C)n1nc(-c2cc3ccccc3n2C)c2c(N)ncnc21 [Compound 6] | < 6.30 | < 6.30 | – | – |
| CC(C)n1nc(-c2cc3ccccc3[nH]2)c2c(N)ncnc21 [Compound 7] | 7.00 to 7.30 | < 6.30 | – | – |
| COc1ccc2cc(-c3nn(C(C)C)c4ncnc(N)c34)[nH]c2c1 [Compound 8] | < 6.30 | < 6.30 | – | – |
| CC(C)n1nc(-c2cc3c(Cl)cccc3[nH]2)c2c(N)ncnc21 [Compound 9] | 7.30 to 7.60 | < 6.30 | – | – |
| COc1cccc2cc(-c3nn(C(C)C)c4ncnc(N)c34)[nH]c12 [Compound 10] | 7.60 to 8.00 | – | – | – |
| CNc1noc2cc(-c3nn(C(C)C)c4ncnc(N)c34)ccc12 [Compound 13] | – | – | – | pIC50 ([3]; Table 1): > 6.00; pIC50 ([1]; Table 1, read-out: mTOR IC50): > 5.00; pIC50 ([4]; Table 1): > 6.00; pIC50 ([2]; Table 1): > 5.00 |
| COc1cc(Cl)c2[nH]c(-c3nn(C(C)C)c4ncnc(N)c34)cc2c1 [Compound 13] | < 6.30 | < 6.30 | – | – |
| CC(C)n1nc(-c2ccc3c(NC4CC4)noc3c2)c2c(N)ncnc21 [Compound 14] | – | – | – | pIC50 ([3]; Table 1): > 5.00; pIC50 ([1]; Table 1, read-out: mTOR IC50): > 5.00; pIC50 ([2]; Table 1): > 5.00 |
| COc1cc(F)c2[nH]c(-c3nn(C(C)C)c4ncnc(N)c34)cc2c1 [Compound 14] | < 6.30 | < 6.30 | – | – |
| CC(C)n1nc(-c2ccc3onc(NC4CC4)c3c2)c2c(N)ncnc21 [Compound 16] | – | – | – | pIC50 ([3]; Table 1): < 5.00; pIC50 ([1]; Table 1, read-out: mTOR IC50): < 5.00; pIC50 ([2]; Table 1): < 5.00 |
| CC(C)n1nc(-c2cc3cc(Cl)ccc3[nH]2)c2c(N)ncnc21 [Compound 17] | < 6.30 | < 6.30 | – | – |
| Nc1noc2ccc(-c3nn(CC(=O)N4CCOCC4)c4ncnc(N)c34)cc12 [Compound 17] | – | – | – | pIC50 ([3]; Table 1): < 5.00; pIC50 ([1]; Table 1, read-out: mTOR IC50): < 5.00; pIC50 ([4]; Table 1): < 5.00; pIC50 ([2]; Table 1): < 5.00 |
| COc1ccc2[nH]c(-c3nn(C(C)C)c4ncnc(N)c34)cc2n1 [Compound 18] | < 6.30 | – | – | – |
| COC(=O)Nc1noc2ccc(-c3nn(C(C)C)c4ncnc(N)c34)cc12 [Compound 19] | – | – | – | pIC50 ([3]; Table 1): < 5.00; pIC50 ([5]; Table 1): < 5.00; pIC50 ([1]; Table 1, read-out: mTOR IC50): > 5.00; pIC50 ([2]; Table 1): < 5.00 |
| COc1cnc2[nH]c(-c3nn(C(C)C)c4ncnc(N)c34)cc2c1 [Compound 19] | < 6.30 | < 6.30 | – | – |
| CC(C)n1nc(-c2cc3cnccc3[nH]2)c2c(N)ncnc21 [Compound 20] | < 6.30 | < 6.30 | – | – |
| COC(=O)Nc1noc2cc(-c3nn(C(C)C)c4ncnc(N)c34)ccc12 [Compound 20] | – | – | – | pIC50 ([3]; Table 1): > 5.00; pIC50 ([5]; Table 1): < 5.00; pIC50 ([1]; Table 1, read-out: mTOR IC50): > 5.00; pIC50 ([2]; Table 1): > 5.00 |
| CC(C)n1nc(-c2cc3cc(C(N)=O)ccc3[nH]2)c2c(N)ncnc21 [Compound 23] | < 6.30 | < 6.30 | – | – |

| SMILES | pIC50 ([1]; Table 2, read-out: mTORC IC50) | pIC50 ([2]; Table 2) | pIC50 ([3]; Table 2) | further results |
| --- | --- | --- | --- | --- |
| Nc1nc2cc(-c3nn(C4CC(O)C4)c4ncnc(N)c34)ccc2o1 (stereo not drawn) [Compound 26] | – | – | – | pIC50 ([4]; Table 1): > 7.00; pIC50 ([2]; Table 1): > 7.00 |
| CCOC(=O)Cn1nc(-c2cc3cc(O)ccc3[nH]2)c2c(N)ncnc21 [Compound 28] | 6.30 to 7.00 | < 6.30 | < 6.30 | pIC50 ([5]; Table 2): < 6.30 |
| COc1cc2cc(-c3nn(C(C)C)c4ncnc(N)c34)[nH]c2cc1Cl [Compound 29] | < 6.30 | – | – | – |
| CC(=O)N1CCC(n2nc(-c3cc4cc(O)ccc4[nH]3)c3c(N)ncnc32)CC1 [Compound 30] | 7.60 to 8.00 | < 6.30 | < 6.30 | pIC50 ([5]; Table 2): < 6.30 |
| Nc1ncnc2c1c(-c1cc3cc(O)ccc3[nH]1)nn2C1CCN(C(=O)C2CC2)CC1 [Compound 31] | 7.60 to 8.00 | < 6.30 | 6.30 to 7.00 | pIC50 ([5]; Table 2): < 6.30 |
| CC(C)n1nc(-c2cc3cc(O)c(Cl)cc3[nH]2)c2c(N)ncnc21 [Compound 32] | 6.30 to 7.00 | < 6.30 | < 6.30 | pIC50 ([4]; Table 2): < 6.30 |
| Nc1ncnc2c1c(-c1cc3cc(O)ccc3[nH]1)nn2CCN1CCOCC1 [Compound 33] | 6.30 to 7.00 | < 6.30 | < 6.30 | pIC50 ([4]; Table 2): < 6.30 |
| Nc1ncnc2c1c(-c1cc3cc(O)ccc3[nH]1)nn2CC(=O)N1CCOCC1 [Compound 34] | < 6.30 | < 6.30 | < 6.30 | pIC50 ([4]; Table 2): < 6.30 |
| CNC(=O)Cn1nc(-c2cc3cc(O)ccc3[nH]2)c2c(N)ncnc21 [Compound 35] | < 6.30 | < 6.30 | < 6.30 | pIC50 ([4]; Table 2): < 6.30 |
| CC(C)n1nc(-c2cc3c(O)cccc3[nH]2)c2c(N)ncnc21 [Compound 37] | < 6.30 | 6.30 to 7.00 | 6.30 to 7.00 | pIC50 ([4]; Table 2): 6.30 to 7.00 |
| Nc1ncnc2c1c(-c1cc3cc(O)ccc3[nH]1)nn2Cc1cccnc1 [Compound 38] | 6.30 to 7.00 | < 6.30 | < 6.30 | pIC50 ([4]; Table 2): < 6.30 |
| CC(C)n1nc(-c2cc3c(Cl)ccc(O)c3[nH]2)c2c(N)ncnc21 [Compound 39] | 8.00 to 8.30 | < 6.30 | < 6.30 | pIC50 ([4]; Table 2): < 6.30 |
| COCCn1nc(-c2cc3cc(O)ccc3[nH]2)c2c(N)ncnc21 [Compound 40] | 7.00 to 7.30 | < 6.30 | < 6.30 | pIC50 ([4]; Table 2): < 6.30 |
| Nc1ncnc2c1c(-c1cc3cc(O)ccc3[nH]1)nn2C1CCOCC1 [Compound 42] | > 8.30 | < 6.30 | 7.00 to 7.30 | pIC50 ([5]; Table 2): < 6.30 |
| CNC(=O)CCn1nc(-c2cc3cc(O)ccc3[nH]2)c2c(N)ncnc21 [Compound 43] | < 6.30 | < 6.30 | < 6.30 | pIC50 ([5]; Table 2): < 6.30 |
| Cc1nccn1CCn1nc(-c2cc3cc(O)ccc3[nH]2)c2c(N)ncnc21 [Compound 44] | 7.00 to 7.30 | < 6.30 | < 6.30 | pIC50 ([5]; Table 2): < 6.30 |
| CC(C)n1nc(-c2cc3cc(O)ccc3[nH]2)c2c(N)nccc21 [Compound 45] | < 6.30 | – | – | – |
| Nc1ncnc2c1c(-c1cc3cc(O)ccc3[nH]1)nn2C1CC(=O)C1 [Compound 53] | 7.00 to 7.30 | < 6.30 | – | pIC50 ([5]; Table 2): < 6.30; pIC50 ([4]; Table 2): < 6.30 |
| Nc1ncnc2c1c(-c1cc3cc(O)ccc3[nH]1)nn2C1CC(O)C1 (stereo not drawn) [Compound 54] | 7.60 to 8.00 | < 6.30 | – | pIC50 ([5]; Table 2): < 6.30; pIC50 ([4]; Table 2): < 6.30 |
| CC(C)N1CCC(n2nc(-c3cc4cc(O)ccc4[nH]3)c3c(N)ncnc32)CC1 [Compound 55] | 6.30 to 7.00 | < 6.30 | – | pIC50 ([5]; Table 2): < 6.30; pIC50 ([4]; Table 2): < 6.30 |
| CC(C)N1CCC(n2nc(-c3cc4cc(O)cc(Cl)c4[nH]3)c3c(N)ncnc32)CC1 [Compound 56] | < 6.30 | < 6.30 | – | pIC50 ([5]; Table 2): < 6.30; pIC50 ([4]; Table 2): < 6.30 |
| Nc1ncnc2c1c(-c1cc3cc(O)ccc3[nH]1)nn2C1CCC(N2CCOCC2)CC1 (stereo not drawn) [Compound 57] | 7.60 to 8.00 | < 6.30 | – | pIC50 ([5]; Table 2): < 6.30; pIC50 ([4]; Table 2): < 6.30 |
